Measurements reported in ChEMBL document CHEMBL1136370, “Structure-activity relationship on human serum paraoxonase (PON1) using substrate analogues and inhibitors” (Bioorg Med Chem Lett, 2003).

Columns and labels:
[1] = biological target: T1, Serum paraoxonase/arylesterase 1 (Homo sapiens, UniProt P27169); experiment: Inhibitory activity against human serum paraoxonase (PON1); Not active
PON1 = experiment: Time taken for 50% to be consumed by serum PON1 was determined; type: ADME; details: human
[2] = biological target: T1, Serum paraoxonase/arylesterase 1; experiment: Inhibitory activity against human serum paraoxonase (PON1)
[3] = Time taken for 50% to be consumed by serum PON1; NH is Not hydrolysed; type: ADME; details: human

T1 sequence (P27169 whole entry): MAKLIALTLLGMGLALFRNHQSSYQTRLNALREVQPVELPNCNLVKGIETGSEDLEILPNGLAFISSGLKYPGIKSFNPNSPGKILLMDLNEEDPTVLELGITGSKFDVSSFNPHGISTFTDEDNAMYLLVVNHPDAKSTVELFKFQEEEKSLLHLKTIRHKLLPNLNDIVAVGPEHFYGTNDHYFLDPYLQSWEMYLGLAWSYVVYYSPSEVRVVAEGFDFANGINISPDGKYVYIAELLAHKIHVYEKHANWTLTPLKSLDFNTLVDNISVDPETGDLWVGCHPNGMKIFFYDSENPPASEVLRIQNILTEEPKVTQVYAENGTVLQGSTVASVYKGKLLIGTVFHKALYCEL

CC(=O)Oc1ccc(N)cc1
IC50 [1]: Not Active
half-life (PON1): 20 min

COc1ccc(OC(C)=O)cc1
IC50 [1]: Not Active
half-life (PON1): 20 min

CCOP(=O)(OCC)Oc1ccc(N)cc1
IC50 [2]: 1.28 mM
T1/2 [3]: Not hydrolysed

CC(=O)Oc1ccc([N+](=O)[O-])cc1 [4-NITROPHENYL ACETATE]
IC50 [1]: Not Active
half-life (PON1): 3.5 min

CC(=O)Oc1ccccc1 [ACETIC ACID PHENYL ESTER]
IC50 [1]: Not Active
half-life (PON1): 1.5 min

CCOP(=O)(OCC)Oc1ccc([N+](=O)[O-])cc1 [PARAOXON]
IC50 [1]: Not Active
half-life (PON1): 1460 min

O=P(O)(O)Oc1ccccc1 [PHENYL DIHYDROGEN PHOSPHATE]
IC50 [2]: 3.25 mM
T1/2 [3]: Not hydrolysed

CCOP(=O)(OCC)Oc1ccccc1 [PHOSPHORIC ACID DIETHYL ESTER PHENYL ESTER]
IC50 [2]: 3.27 mM
T1/2 [3]: Not hydrolysed

O=[N+]([O-])c1ccc(OP(=O)(O)O)cc1 [p-NITROPHENYLPHOSPHATE]
IC50 [2]: 18.5 mM
T1/2 [3]: Not hydrolysed
